Series [1] relates to S. pyogenes. In kind it is cell-based, Streptococcus pyogenes strain AP1. Conditions: positive control, 3 μM LL-37. On the procedure: (§1) Viable count assay Bacteria were grown to mid-logarithmic phase (OD620≈ 0.4) in THB-medium at 37° C. with 5% CO2. The bacterial solution was subsequently washed and adjusted to 2×10^9 cfu/ml in 10 mM Tris, pH 7.4, containing 5 mM glucose. S. pyogenes, S. aureus, E. coli or P. aeruginosa were then incubated with 2 μM of purified collagen type VI at 37° C. for 2 h. In some experiments S. pyogenes was incubated with recombinant collagen type VI fragments at various concentrations (0.125, 0.25, 0.5, 1.0 and 2.0 μM) for 2 h at 37° C. Bacteria incubated with Tris-HCl pH 7.4 buffer or 3 μM LL-37 (Innovagen, Lund, Sweden) were used as negative and positive controls respectively. To quantify the bactericidal activity, serial dilutions of the incubation mixtures were plated on blood agar plates, followed by incubation at 37° C. overnight, and the number of colony forming units (cfu) were determined. Hundred percent survival was defined as total survival of bacteria in the same buffer and under the same condition in the absence of collagen type VI or recombinant proteins.

Series [2] concerns S. aureus. The class given is cell-based, Staphylococcus aureus strain 111. The conditions noted are these: positive control, 3 μM LL-37. On the procedure:
as §1

In series [3] the test system is E. coli. The class given is cell-based, Escherichia coli strain 1351. Conditions: positive control, 3 μM LL-37. On the procedure:
as §1

In series [4] the test system is P. aeruginosa. In kind it is cell-based, Pseudomonas aeruginosa PAO1. Conditions: positive control, 3 μM LL-37. As to the method: as §1
The subject of series [5] is human monocytic THP-1 cells. The series is described as follows: Lactate dehydrogenase (LDH) assay. The class given is cell-based. Conditions: at 50 μM. As to the method:
The cytotoxicity experiments were performed as described previously (41). Briefly, human monocytic THP-1 cells (American Type Culture Collection (ATCC), Manassas, VA) were cultured into 96-well plates using Dulbecco's Modified Eagle's medium (DMEM) (PAA Laboratories) supplemented with 10% fetal calf serum. The medium was removed and the cells were subsequently washed with DMEM. Peptides (1, 5, 10, 20, 50 μM) diluted in DMEM were added in triplicates. The LDH based TOX-7 kit (Sigma-Aldrich) was used according to the manufacturer instructions. The amount of LDH release from dead cells was measured at 450 nm. As a positive control 2% Triton X-100 was used.

Series [6] in a line: Membrane permeabilization assay (carboxyfluorescein efflux from liposomes). Conditions: 10 mM Tris pH 7.4, 37° C., 45 min. On the procedure:
Dry lipid films of E. coli polar lipid extract were formed in round-bottom flask walls by dissolving lipids in chloroform, followed by evaporation under N2-flow and subsequently placed in vacuum overnight. Lipid films were re-suspended either by 30 min stirring (E. coli), at 55° C. in an aqueous solution of 100 mM 5(6)-carboxyfluorescein in 10 mM Tris (set to pH 7.4 at 37° C.). Suspensions were then vortexed followed by repeated extrusion through a 100 nm polycarbonate membrane mounted in a LipoFast mini-extruder (Avanti Polar Lipids) in order to reduce multilamellar structures and polydispersity. Un-trapped carboxyfluorescein was removed by gel filtration on Sephadex PD-10 columns (GE Healthcare, Little Chalfont, UK). Membrane permeability was measured by monitoring carboxyfluorescein efflux from the liposomes to the external low concentration environment, resulting in loss of self-quenching and an increased fluorescence signal with excitation and emission wavelengths of 492 and 517 nm, respectively. Fluorescence was measured with a Varioskan Flash Multimode Reader (Thermo Fisher Scientific, Waltham, MA) in black Nunc Delta Surface 96-well plate (Thermo Fisher Scientific, Roskilde, DK). […] The effects of each peptide concentration on the liposome systems were monitored for 45 min, at which point the initial leakage had largely subsided. […]

The test system of series [7] is S. pyogenes, S. aureus, E. coli and P. aeruginosa. The series is described as follows: Bactericidal assay (viable count), statements on the whole panel. In kind it is cell-based. The conditions noted are these: salt conditions (150 mM NaCl, pH 7.4). On the procedure: Bacteria were grown to mid-logarithmic phase (OD620≈0.4) in THB medium at 37° C., with 5% CO2. The bacterial solution was subsequently washed and adjusted to 2×10^7 cfu/ml in salt buffer (10 mM Tris-HCl, 150 mM NaCl supplemented with 5 mM glucose; pH 7.4) (both from Sigma-Aldrich). Various concentrations of peptides (0.3, 0.6, 3, 6, 30 and 60 μM) were incubated with bacteria in salt buffer with or without 20% human plasma. Bacteria incubated in only salt buffer with or without plasma were used as negative controls. Samples with LL-37 served as positive controls. The samples were incubated for 2 h at 37° C. with 5% CO2. To quantify the bactericidal activity, serial dilutions of the incubation mixtures were plated on THB agar plates, followed by incubation at 37° C. with 5% CO2 overnight, and the number of cfu were determined. Experiments were performed in triplicate. Hundred percent survival was defined as total survival of bacteria in the same buffer and under the same condition in the absence of peptides.

In series [8] the test system is RAW 264.7 macrophage cells. The series is described as follows: LPS stimulation of macrophages in vitro (nitrite, Griess reagent). The class given is cell-based, murine. The conditions noted are these: LPS 10 ng/ml pre-incubated with peptide, 24 h. On the procedure:
Murine macrophage-like cells (RAW 264.7; ATCC) were seeded in 96-well plates at 3.5×10^5 cells/well in DMEM (without phenol red, PAA Laboratories) supplemented with 10% fetal calf serum and antibiotic-antimycotic (Invitrogen, Carlsbad, CA). After overnight incubation at 37° C., the cells were washed once with DMEM. LPS (10 ng/ml) was pre-incubated with the peptides for 20 min at room temperature and added to the cells. The cells were subsequently incubated for 24 h at 37° C. Griess reagent (Sigma, St. Louis, MO) was added to culture supernatant in 1:1 ratio followed by 15 min incubation in dark. The absorbance was then measured at 550 nm with a spectrophotometer. The cells with and without LPS stimulation were taken as positive and negative controls for LPS-induction. For the determination of NO production with peptides and LPS treatments, the assay was done in triplicate and the average values were considered for each set. Cells were grown at 37° C. and with 5% CO2 in fully humidified air.
(Griess reagent forms a coloured azo dye with nitrite.)

In series [9] the test system is P. aeruginosa 15159. The series is described as follows: Invasive P. aeruginosa infection model, survival. In kind it is in vivo, Female BALB/c mice. As to the method: Animal experiments were performed according to a protocol approved by the Local Ethics Committee at Lund University. Animals were housed under standard conditions of light and temperature and had free access to standard laboratory chow and water. P. aeruginosa 15159 bacteria were grown to mid-exponential phase (A620˜0.5), washed and diluted in PBS to 2×10^8 cfu/ml, and kept on ice until injection. Female BALB/c mice, 8 weeks old, were anesthetized with isoflurane and injected intraperitoneally with 100 μL of the bacterial solution, followed by injection of 100 μL SFV33 or GVR28 peptide (1 mg/mL) after 15 minutes, or with 100 μL PBS alone (control group).

No end group written: not given here.

Turning to `CC[C@H](C)[C@H](NC(=O)[C@H](CCCCN)NC(=O)[C@H](CCC(=O)O)NC(=O)[C@H](CCCCN)NC(=O)[C@H](CO)NC(=O)[C@H](CCCCN)NC(=O)[C@H](CCCNC(=N)N)NC(=O)[C@H](Cc1ccccc1)NC(=O)[C@H](Cc1ccccc1)NC(=O)[C@H](CC(=O)O)NC(=O)CNC(=O)[C@H](CC(C)C)NC(=O)[C@@H](N)CC(C)C)C(=O)NCC(=O)N[C@@H](CCCCN)C(=O)N[C@@H](CCC(=O)O)C(=O)N[C@@H](Cc1ccccc1)C(=O)N[C@@H](CCCCN)C(=O)N[C@@H](CCCNC(=N)N)C(=O)N[C@H](C(=O)N[C@H](C(=O)N[C@@H](CCC(N)=O)C(=O)N[C@@H](CCCNC(=N)N)C(=O)N[C@H](C(=O)N[C@@H](CCCCN)C(=O)N[C@@H](CC(=O)O)C(=O)N[C@@H](Cc1ccccc1)C(=O)N[C@@H](CC(C)C)C(=O)N[C@@H](CCCNC(=N)N)C(=O)N[C@@H](CC(N)=O)C(=O)N[C@@H](CC(C)C)C(=O)N[C@H](C(=O)N1CCC[C@H]1C(=O)N[C@@H](CCCNC(=N)N)C(=O)N[C@H](C(=O)N[C@@H](CCC(=O)O)C(=O)N[C@@H](CO)C(=O)O)[C@@H](C)O)C(C)C)[C@@H](C)CC)C(C)C)[C@@H](C)CC` [LL-37], the killing in series [1], in series [2], in series [3] and in [4] was about 100% in each case.
Turning to “SFVARNTFKRVRNGFLMRKVAVFFSNTPTRASP [SFV33]”, the “toxicity towards monocytes (LDH release)” value in series [5] is on record as “exhibited toxicity”.
As to “FYLKTYRSQAPVLDAIRRLRLRGGS (FYL25 peptide) [peptide derived from VWA domain of collagen type VI α3-chain]”, the “membrane leakage (release of carboxyfluorescein)” value in series [6] is given as “highest membrane leakage”.
On to “GVRPDGFAHIRDFVSRIVRRLNIGPSKV (GVR28 peptide) [peptide derived from VWA domain of collagen type VI α3-chain]”, for which the “antibacterial activity (viable count)” value in [7] is “somewhat reduced effects”. Moreover, in [8], the LPS-induction of nitrite entry is “significantly suppressed the LPS-induction of nitrite”. Also, the “survival compared with PBS group” value in series [9] (experiment terminated after 29 hours) is recorded as “prolonged survival”. Besides, the “time at which 50% mortalities were observed” value in series [9] (mice infected i.p., single dose 100 μL peptide (1 mg/mL) 15 minutes after infection) stood at 24 h.

These data come from patent US12134640B2, “Polypeptides and medical uses thereof” (priority 2016, dated 2024).
